Reference: ChEMBL document CHEMBL3856285, “Recent progress in the identification of adenosine monophosphate-activated protein kinase (AMPK) activators” (Bioorg Med Chem Lett, 2016)

Legend:
[1] = biological target: T1, AMPK alpha1/beta2/gamma1 (Homo sapiens, UniProt O43741+P54619+Q13131); assay: Activation of human recombinant AMPK alpha1/beta2/gamma1 expressed in African green monkey COS7 cells assessed as increase in biotinylated […] (1 to 120 residues) peptide phosphorylation at Ser-79 residue measured after 60 mins by Alphascreen assay; format: cell-based, COS-7
[2] = biological target: AMPK alpha2/beta2/gamma1 (Homo sapiens) (UniProt P54646+O43741+P54619); assay: Activation of human recombinant AMPK alpha2/beta2/gamma1 expressed in African green monkey COS7 cells assessed as increase in biotinylated […] (1 to 120 residues) peptide phosphorylation at Ser-79 residue measured after 60 mins by Alphascreen assay relative to control; format: cell-based; details: COS-7
[3] = biological target: AMPK alpha2/beta1/gamma1 (Homo sapiens) (UniProt P54646+P54619+Q9Y478); assay: Activation of human recombinant AMPK alpha2/beta1/gamma1 expressed in African green monkey COS7 cells assessed as increase in biotinylated […] (1 to 120 residues) peptide phosphorylation at Ser-79 residue measured after 60 mins by Alphascreen assay relative to control; format: cell-based; details: COS-7
Sequence of AMPK alpha2/beta1/gamma1 (Homo sapiens) (P54619 whole entry partner, the tested form may be a part): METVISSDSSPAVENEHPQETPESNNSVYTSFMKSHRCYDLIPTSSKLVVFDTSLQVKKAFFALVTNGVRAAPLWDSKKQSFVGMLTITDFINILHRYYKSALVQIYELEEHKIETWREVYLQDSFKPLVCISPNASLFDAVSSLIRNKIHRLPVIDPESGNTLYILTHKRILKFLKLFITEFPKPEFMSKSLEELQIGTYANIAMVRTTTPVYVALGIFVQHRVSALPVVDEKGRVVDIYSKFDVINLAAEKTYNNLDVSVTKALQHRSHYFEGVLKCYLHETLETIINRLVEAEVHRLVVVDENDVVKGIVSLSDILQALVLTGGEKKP
Sequence of AMPK alpha2/beta1/gamma1 (Homo sapiens) (P54646 whole entry, the tested form may be a part): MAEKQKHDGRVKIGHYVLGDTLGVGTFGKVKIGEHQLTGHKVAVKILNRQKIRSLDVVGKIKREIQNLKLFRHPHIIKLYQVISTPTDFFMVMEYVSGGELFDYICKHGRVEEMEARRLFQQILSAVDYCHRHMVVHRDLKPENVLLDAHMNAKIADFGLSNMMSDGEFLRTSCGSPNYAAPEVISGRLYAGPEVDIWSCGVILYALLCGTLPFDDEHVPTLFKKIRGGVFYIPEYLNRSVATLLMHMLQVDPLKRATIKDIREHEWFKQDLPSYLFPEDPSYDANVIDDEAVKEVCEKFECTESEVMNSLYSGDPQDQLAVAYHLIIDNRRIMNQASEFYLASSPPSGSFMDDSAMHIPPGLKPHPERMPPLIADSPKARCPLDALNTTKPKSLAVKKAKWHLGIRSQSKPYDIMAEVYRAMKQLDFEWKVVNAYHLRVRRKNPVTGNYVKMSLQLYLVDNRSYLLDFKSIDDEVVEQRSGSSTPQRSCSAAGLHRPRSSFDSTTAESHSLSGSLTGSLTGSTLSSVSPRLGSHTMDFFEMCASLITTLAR
Sequence of AMPK alpha2/beta1/gamma1 (Homo sapiens) (Q9Y478 2-270 partner limits assumed): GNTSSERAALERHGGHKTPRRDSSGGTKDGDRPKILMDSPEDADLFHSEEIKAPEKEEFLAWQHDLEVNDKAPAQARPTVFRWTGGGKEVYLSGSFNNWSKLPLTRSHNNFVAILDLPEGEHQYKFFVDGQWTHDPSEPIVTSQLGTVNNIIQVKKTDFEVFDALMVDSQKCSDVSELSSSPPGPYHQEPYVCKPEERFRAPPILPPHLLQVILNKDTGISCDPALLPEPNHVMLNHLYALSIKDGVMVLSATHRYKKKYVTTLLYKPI

[4] = biological target: T2, AMP-activated protein kinase (AMPK) alpha-1/beta-1/gamma-1 (Homo sapiens, UniProt P54619+Q13131+Q9Y478); assay: Activation of human recombinant AMPK alpha1/beta1/gamma1 expressed in African green monkey COS7 cells assessed as increase in biotinylated […] (1 to 120 residues) peptide phosphorylation at Ser-79 residue measured after 60 mins by Alphascreen assay; format: cell-based, COS-7
T2 sequence (P54619 whole entry, the tested form may be a part): as the sequence (P54619 whole entry partner, the tested form may be a part) above
T2 sequence (Q9Y478 whole entry, the tested form may be a part): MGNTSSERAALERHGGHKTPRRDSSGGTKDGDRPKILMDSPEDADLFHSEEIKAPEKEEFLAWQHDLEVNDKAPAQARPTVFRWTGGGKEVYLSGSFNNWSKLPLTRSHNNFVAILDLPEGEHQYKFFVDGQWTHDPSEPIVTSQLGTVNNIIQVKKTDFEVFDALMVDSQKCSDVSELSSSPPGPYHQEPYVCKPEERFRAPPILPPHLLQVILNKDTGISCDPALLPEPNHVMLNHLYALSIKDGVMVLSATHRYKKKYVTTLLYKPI
T2 sequence (Q13131 whole entry, the tested form may be a part): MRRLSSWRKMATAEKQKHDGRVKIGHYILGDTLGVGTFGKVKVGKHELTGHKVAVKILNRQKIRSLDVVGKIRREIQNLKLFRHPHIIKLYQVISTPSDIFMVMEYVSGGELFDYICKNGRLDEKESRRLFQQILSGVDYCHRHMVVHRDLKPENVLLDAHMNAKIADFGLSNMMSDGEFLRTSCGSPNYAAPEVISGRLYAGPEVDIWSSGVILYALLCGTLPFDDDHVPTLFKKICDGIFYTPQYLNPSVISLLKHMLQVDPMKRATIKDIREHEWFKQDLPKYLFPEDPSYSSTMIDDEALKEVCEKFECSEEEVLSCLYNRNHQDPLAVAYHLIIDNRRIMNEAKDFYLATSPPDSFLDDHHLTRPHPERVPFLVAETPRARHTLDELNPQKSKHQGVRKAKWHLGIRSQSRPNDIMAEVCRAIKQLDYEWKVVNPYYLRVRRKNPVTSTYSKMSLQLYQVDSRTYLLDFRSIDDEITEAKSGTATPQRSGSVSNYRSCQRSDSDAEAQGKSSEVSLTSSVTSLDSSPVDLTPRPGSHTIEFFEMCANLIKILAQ

[5] = biological target: AMP-activated protein kinase (AMPK) alpha-1/beta-1/gamma-1 (Homo sapiens) (UniProt P54619+Q9Y478+Q13131); assay: Activation of human recombinant AMPK alpha1/beta1/gamma1 expressed in African green monkey COS7 cells assessed as increase in biotinylated […] (1 to 120 residues) peptide phosphorylation at Ser-79 residue measured after 60 mins by Alphascreen assay relative to control; format: cell-based; details: COS-7
Sequence of AMP-activated protein kinase (AMPK) alpha-1/beta-1/gamma-1 (Homo sapiens) (P54619 whole entry, the tested form may be a part): as the sequence (P54619 whole entry partner, the tested form may be a part) above
Sequence of AMP-activated protein kinase (AMPK) alpha-1/beta-1/gamma-1 (Homo sapiens) (Q13131 whole entry partner, the tested form may be a part): as the sequence (Q13131 whole entry, the tested form may be a part) above
Sequence of AMP-activated protein kinase (AMPK) alpha-1/beta-1/gamma-1 (Homo sapiens) (Q9Y478 2-270 partner limits assumed): as the sequence (Q9Y478 2-270 partner limits assumed) above

[6] = biological target: T1, AMPK alpha1/beta2/gamma1; assay: Activation of human recombinant AMPK alpha1/beta2/gamma1 expressed in African green monkey COS7 cells assessed as increase in biotinylated […] (1 to 120 residues) peptide phosphorylation at Ser-79 residue measured after 60 mins by Alphascreen assay relative to control; format: cell-based; details: COS-7
[7] = biological target: AMPK alpha2/beta2/gamma3 (Homo sapiens, UniProt O43741+P54646+Q9UGI9); assay: Activation of human recombinant AMPK alpha2/beta2/gamma3 expressed in African green monkey COS7 cells assessed as increase in biotinylated […] (1 to 120 residues) peptide phosphorylation at Ser-79 residue measured after 60 mins by Alphascreen assay; format: cell-based, COS-7
[8] = biological target: AMPK alpha2/beta2/gamma1 (Homo sapiens, UniProt O43741+P54619+P54646); assay: Activation of human recombinant AMPK alpha2/beta2/gamma1 expressed in African green monkey COS7 cells assessed as increase in biotinylated […] (1 to 120 residues) peptide phosphorylation at Ser-79 residue measured after 60 mins by Alphascreen assay; format: cell-based, COS-7
[9] = biological target: AMPK alpha2/beta1/gamma1 (Homo sapiens, UniProt P54619+P54646+Q9Y478); assay: Activation of human recombinant AMPK alpha2/beta1/gamma1 expressed in African green monkey COS7 cells assessed as increase in biotinylated […] (1 to 120 residues) peptide phosphorylation at Ser-79 residue measured after 60 mins by Alphascreen assay; format: cell-based, COS-7
[10] = biological target: AMPK alpha2/beta2/gamma3 (Homo sapiens) (UniProt P54646+O43741+Q9UGI9); assay: Activation of human recombinant AMPK alpha2/beta2/gamma3 expressed in African green monkey COS7 cells assessed as increase in biotinylated […] (1 to 120 residues) peptide phosphorylation at Ser-79 residue measured after 60 mins by Alphascreen assay relative to control; format: cell-based; details: COS-7
Sequence of AMPK alpha2/beta2/gamma3 (Homo sapiens) (O43741 whole entry, looked up, the tested form may be a part): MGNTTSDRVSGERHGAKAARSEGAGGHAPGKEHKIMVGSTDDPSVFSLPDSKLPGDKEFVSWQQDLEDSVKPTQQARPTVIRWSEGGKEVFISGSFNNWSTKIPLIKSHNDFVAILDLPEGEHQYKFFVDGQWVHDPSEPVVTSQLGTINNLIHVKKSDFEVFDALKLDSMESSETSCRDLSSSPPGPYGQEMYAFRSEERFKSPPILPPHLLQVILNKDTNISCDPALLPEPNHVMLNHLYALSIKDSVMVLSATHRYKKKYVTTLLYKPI
Sequence of AMPK alpha2/beta2/gamma3 (Homo sapiens) (P54646 whole entry, looked up, the tested form may be a part): as the sequence (P54646 whole entry, the tested form may be a part) above
Sequence of AMPK alpha2/beta2/gamma3 (Homo sapiens) (Q9UGI9 whole entry, looked up, the tested form may be a part): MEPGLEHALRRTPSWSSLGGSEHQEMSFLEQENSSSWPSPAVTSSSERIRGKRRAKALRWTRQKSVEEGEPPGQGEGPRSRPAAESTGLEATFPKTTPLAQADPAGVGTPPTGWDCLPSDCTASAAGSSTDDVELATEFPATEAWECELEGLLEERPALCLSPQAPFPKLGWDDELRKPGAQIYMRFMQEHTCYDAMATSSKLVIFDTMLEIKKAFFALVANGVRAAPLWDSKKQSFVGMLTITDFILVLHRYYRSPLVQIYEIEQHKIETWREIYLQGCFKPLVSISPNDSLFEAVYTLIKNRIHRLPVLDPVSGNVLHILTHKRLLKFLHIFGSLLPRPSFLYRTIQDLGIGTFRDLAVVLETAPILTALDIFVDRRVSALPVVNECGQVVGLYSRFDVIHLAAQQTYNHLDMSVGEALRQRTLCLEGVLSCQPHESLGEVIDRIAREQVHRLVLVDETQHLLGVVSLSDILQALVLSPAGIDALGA

[11] = biological target: T2, AMP-activated protein kinase (AMPK) alpha-1/beta-1/gamma-1; assay: Activation of full length human recombinant N-terminal GST-tagged AMPK alpha1/beta1/gamma1 expressed in baculovirus infected High Five cells using NH2-HMRSAMSGLHLVKRR CONH2 substrate after 60 mins by ADP-Glo kinase assay; parameters: species or system BTI-TN-5B1-4

Row | EC50 [1] [nM] | fold change (FC) [2] | fold change (FC) [3] | EC50 [4] [nM] | fold change (FC) [5] | fold change (FC) [6] | EC50 [7] [nM] | EC50 [8] [nM] | EC50 [9] [nM] | fold change (FC) [10] | EC50 [11] [nM] | SMILES
1 | 4 | 13 | 13 | 11 | 27 | 10 | 4 | 2 | 27 | 16 | – | Oc1cccc(O)c1-c1ccc(-c2cc3nc(O[C@@H]4CO[C@H]5[C@@H]4OC[C@H]5O)[nH]c3cc2Cl)cc1
2 | – | – | – | – | – | – | – | – | – | – | 3 | CS(=O)(=O)Nc1ccc(-c2ccc(-c3nc4nc(O[C@@H]5CO[C@H]6[C@@H]5OC[C@H]6O)[nH]c4cc3Cl)cc2)c(F)c1
